One experiment has as its system pBMO promoter activity. The class given is cell-based, E. coli. Conditions: for activation of pBMO-promoter expression by BmoR in response to alcohol: E. coli, pBMO::GFP reporter. Here is the method: A pBMO-promoter::GFP reporter cassette is constructed. The pBMO-promoter comprises the nucleotide sequences from the −425 nucleotide to the +11 nucleotide. This section of the pBMO-promoter comprises the upstream activating sequence (UAS) to which BmoR binds. A deletion analysis is performed whereby the upstream sequence is deleted to produce reporter cassettes comprising of the −325 nucleotide to the +1 nucleotide fragment, the −225 nucleotide to the +1 nucleotide fragment, the −175 nucleotide to the +1 nucleotide fragment, the +1 nucleotide to the +1 nucleotide fragment, and no fragment (FIG. 3). The various reporter cassettes are introduced into an E. coli. also containing the bmoR gene operatively linked to the pBAD promoter or a pZT promoter. The pBAD promoter is taught by Guzman, L. M., et al., “Tight regulation, modulation, and high-level expression by vectors containing the arabinose PBAD promoter”, J. Bacteriol. 177(14):4121-4130 (1995), which is incorporated by reference.
Using the pBMO-promoter reporter cassette comprising of the −325 nucleotide to the +1 nucleotide fragment, the E. coli strain is analyzed for the optimum temperature for pBMO promoter activity using different concentrations of butan-1-ol.
Using the pBMO-promoter reporter cassette comprising of the −325 nucleotide to the +1 nucleotide fragment, the E. coli strain is analyzed for pBMO promoter activity in response to different alcohols: butan-1-ol (FIG. 5), ethanol (FIG. 6), 1-propanol (FIG. 6), 2-propanol (FIG. 6), pentanol (FIG. 5), and hexanol (FIG. 5). From an overnight culture harboring a plasmid containing GFP under control of pBMO and BmoR under control of pZT 5 mL cultures of rich media were inoculated (1.5% v/v). Cultures are grown at 37° C., 200 rpm, until reaching an optical density (OD600) of 0.25 and induced with 57.5 ng/mL anhydrotetracyline. The cultures are than grown at 25° C., 200 rpm, until reaching an OD600=0.80 at which point they are diluted to an OD600=0.20 in media containing a range of alcohol concentrations. The culture tubes are sealed with parafilm and grown at 25° C., 200 rpm, for 18 hours. 150 μl culture samples are quantified for GFP fluorescence on a 96-well plate reader.

Experiment [1] deals with E. coli cultures harboring the butanol biosensor controlling TetA expression. Conditions: media with multiple concentrations of butanol and tetracycline; N=4. The protocol:
The BmoR transcription factor is used to construct a genetic selection for the presence of butanol in the media.
Maximal growth rates are calculated by fitting curves to the Gompertz equation. […] N=4, mean±standard deviation.

The subject of experiment [2] is 300-nucleotide DNA fragment upstream of the pBMO-promoter. Briefly: Gel mobility shift assay. The format is binding. Conditions: purified His-tagged BmoR, DIG Gel Shift Kit. The text has this:
A DIG Gel Shift Kit (Roche Applied Science, Indianapolis, Ind.) is used according to the manufacturer's instructions.

Data on seven molecules can be found in patent US8552169B2, “Transcription factor-based biosensor” (The Regents of the University of California, priority 2009, dated 2013).

Take `CCCCCO` [1-pentanol]: the “activation of pBMO-promoter expression by BmoR in response to alcohol” value (“activation of pBMO-promoter expression” below) in the experiment on pBMO promoter activity is reported as “capable of activating pBMO-promoter expression”.
Same read-out and setting: the same measure for `CCCO` [1-propanol]: “capable of activating pBMO-promoter expression”; for `CC(C)O` [2-propanol]: “capable of activating pBMO-promoter expression”.
Turning to `CCC(C)O` (stereo not drawn) [butan-1-ol], the “butanol dependent growth (maximal growth rate)” value in experiment [1] is given as “strong butanol dependent growth”. Further, the “activation of pBMO-promoter expression” value in the experiment with pBMO promoter activity is given as “capable of activating pBMO-promoter expression”. In addition, the “activation of the reporter gene (optimum condition)” value in the experiment on pBMO promoter activity (cultured at 25° C. with 0.5% of butan-1-ol by volume, compared to the other conditions tested) is reported as “the activation of the reporter gene is the strongest”.
For `CCO` [ethanol], the “activation of pBMO-promoter expression” value with pBMO promoter activity is reported as “capable of activating pBMO-promoter expression”.
In the case of `CCCCCCO` [1-hexanol], the “activation of pBMO-promoter expression” value in the experiment on pBMO promoter activity was “capable of activating pBMO-promoter expression”.

B1: BmoR: σ54-dependent transcription factor (activator protein) of P. butanovora, SEQ ID NO: 4, activated by C2-C8 alcohols (protein, listed as Pseudomonas butanova)
chain: MSKMQEFARLETVASMRRAVWDGNECQPGKVADVVLRSWTRCRAEGVVPNARQEFDPIPRTALDETVEAKRALILAAEPVVDALMEQMNDAPRMIILNDERGVVLLNQGNDTLLEDARRRAVRVGVCWDEHARGTNAMGTALAERRPVAIHGAEHYLESNTIFTCTAAPIYDPFGEFTGILDISGYAGDMGPVPIPFVQMAVQFIENQLFRQTFADCILLHFHVRPDFVGTMREGIAVLSREGTIVSMNRAGLKIAGLNLEAVADHRFDSVFDLNFGAFLDHVRQSAFGLVRVSLYGGVQVYARVEPGLRVPPRPAAHARPPRPAPRPLDSLDTGDAAVRLAIDRARRAIGRNLSILIQGETGAGKEVFAKHLHAESPRSKGPFVAVNCAAIPEGLIESELFGYEEGAFTGGRRKGNIGKVAQAHGGTLFLDEIGDMAPGLQTRLLRVLQDRAVMPLGGREPMPVDIALVCATHRNLRSLIAQGQFREDLYYRLNGLAISLPPLRQRSDLAALVNHILFQCCGGEPHYSVSPEVMTLFKRHAWPGNLRQLHNVLDAALAMLDDGHVIEPHHLPEDFVMEVDSGLRPIEEDGSTAAHRARQPASGSGPAKKLQDLALDAIEQAIEQNEGNISVAARQLGVSRTTIYRKLRQLSPTGCHRPAHWSQSRIGT
For B1, the “binding of BmoR upstream of the pBMO-promoter (band shift)” value in experiment [2] is “A band shift is observed”.
